Patent US11512069B2, “TLR7/8 antagonists and uses thereof” (Merck Patent GmbH, priority 2016, dated 2022)

target: T1, TLR7 (Homo sapiens, UniProt Q9NYK1); assay: HEK Cell Assay (TLR7/NFKb HEK reporter cells, Steady-Glo); assay type: cell-based; conditions: compound 30 min, then R*48 agonist 5 hours, Steady-Glo readout, read-out: Potency
T1 construct: expressed in transfected cells; host or cells: HEK cells carrying TLR7 and an NF-kB reporter read with Steady-Glo
T1 sequence (Q9NYK1 27-1049): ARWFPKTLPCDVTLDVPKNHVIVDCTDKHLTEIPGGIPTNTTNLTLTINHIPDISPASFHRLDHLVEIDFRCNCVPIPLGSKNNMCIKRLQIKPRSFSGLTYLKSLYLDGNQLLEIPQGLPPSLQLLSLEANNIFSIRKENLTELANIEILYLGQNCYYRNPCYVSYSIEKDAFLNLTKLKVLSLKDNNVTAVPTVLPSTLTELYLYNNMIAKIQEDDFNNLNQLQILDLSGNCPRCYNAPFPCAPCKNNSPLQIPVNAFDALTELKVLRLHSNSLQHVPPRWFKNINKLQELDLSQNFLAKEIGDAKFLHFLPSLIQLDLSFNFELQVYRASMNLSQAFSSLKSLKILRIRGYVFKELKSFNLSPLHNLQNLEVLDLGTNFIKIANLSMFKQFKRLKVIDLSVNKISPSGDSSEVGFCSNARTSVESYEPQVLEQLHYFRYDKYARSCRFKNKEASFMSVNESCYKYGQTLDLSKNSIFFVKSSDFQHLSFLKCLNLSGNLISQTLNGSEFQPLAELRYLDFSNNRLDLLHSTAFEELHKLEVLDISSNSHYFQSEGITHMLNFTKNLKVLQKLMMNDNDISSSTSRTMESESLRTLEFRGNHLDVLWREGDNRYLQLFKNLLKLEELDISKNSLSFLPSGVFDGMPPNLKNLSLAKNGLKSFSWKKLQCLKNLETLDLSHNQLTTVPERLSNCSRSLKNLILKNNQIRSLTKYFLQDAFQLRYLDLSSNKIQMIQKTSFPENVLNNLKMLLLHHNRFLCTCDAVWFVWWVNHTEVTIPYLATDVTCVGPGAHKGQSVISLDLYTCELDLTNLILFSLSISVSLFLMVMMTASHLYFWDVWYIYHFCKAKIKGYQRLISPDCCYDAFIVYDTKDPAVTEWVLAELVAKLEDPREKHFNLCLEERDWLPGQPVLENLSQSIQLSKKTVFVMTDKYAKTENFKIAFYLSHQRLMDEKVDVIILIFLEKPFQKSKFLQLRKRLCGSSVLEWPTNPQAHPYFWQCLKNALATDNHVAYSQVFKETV
Summary of the method: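 TLR7/NF-κB HEK reporter cells cultured 24 h, then pre-incubated 30 min with compound before adding R*48 agonist. Luciferase read by Steady-Glo luminescence after 5 h.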

Structure (SMILES) | IC50 [µM]
C[C@H]1C[C@@H](N)C[C@H](c2ccc(C(F)(F)F)c3ncccc23)C1 [Compound 137, (1R,3R,5R)-3-methyl-5-(8-(trifluoromethyl)quinolin-5-yl)cyclohexanamine] | 1 to 20
C[C@@H]1C[C@H](N)C[C@@H](c2ccc(C(F)(F)F)c3ncccc23)C1 [Compound 138, (1S,3S,5S)-3-methyl-5-(8-(trifluoromethyl)quinolin-5-yl)cyclohexanamine] | < 1
C[C@H]1C[C@@H](N)C[C@@H](c2ccc(C(F)(F)F)c3nccnc23)C1 [Compound 139, (1R,3R,5S)-3-methyl-5-(8-(trifluoromethyl)quinoxalin-5-yl)cyclohexanamine] | < 1
C[C@H]1C[C@@H](N)C[C@H](c2ccc(C(F)(F)F)c3nccnc23)C1 [Compound 140, (1R,3R,5R)-3-methyl-5-(8-(trifluoromethyl)quinoxalin-5-yl)cyclohexanamine] | 1 to 20
C[C@@H]1C[C@H](N)C[C@@H](c2ccc(C(F)(F)F)c3nccnc23)C1 [Compound 141, (1S,3S,5S)-3-methyl-5-(8-(trifluoromethyl)quinoxalin-5-yl)cyclohexanamine] | < 1
C[C@@H]1C[C@H](N)C[C@H](c2ccc(C(F)(F)F)c3nccnc23)C1 [Compound 142, (1S,3S,5R)-3-methyl-5-(8-(trifluoromethyl)quinoxalin-5-yl)cyclohexanamine] | < 1
COCCN[C@@H]1C[C@H](C)C[C@H](c2ccc(C(F)(F)F)c3nccnc23)C1 [Compound 147, (1R,3R,5S)—N-(2-methoxyethyl)-3-methyl-5-(8-(trifluoromethyl)quinoxalin-5-yl)cyclohexanamine] | > 20
COCCN[C@H]1C[C@@H](C)C[C@@H](c2ccc(C(F)(F)F)c3nccnc23)C1 [Compound 148, (1S,3S,5R)—N-(2-methoxyethyl)-3-methyl-5-(8-(trifluoromethyl)quinoxalin-5-yl)cyclohexanamine] | 1 to 20
COCCN[C@@H]1C[C@H](C)C[C@@H](c2ccc(C(F)(F)F)c3nccnc23)C1 [Compound 149, (1R,3R,5R)—N-(2-methoxyethyl)-3-methyl-5-(8-(trifluoromethyl)quinoxalin-5-yl)cyclohexanamine] | 1 to 20
COCCN[C@H]1C[C@@H](C)C[C@H](c2ccc(C(F)(F)F)c3nccnc23)C1 [Compound 150, (1S,3S,5S)—N-(2-methoxyethyl)-3-methyl-5-(8-(trifluoromethyl)quinoxalin-5-yl)cyclohexanamine] | > 20
COCCN[C@@H]1C[C@H](C)C[C@H](c2ccc(C(F)(F)F)c3ncccc23)C1 [Compound 152, (1R,3R,5S)—N-(2-methoxyethyl)-3-methyl-5-(8-(trifluoromethyl)quinolin-5-yl)cyclohexanamine] | > 20
COCCN[C@H]1C[C@@H](C)C[C@@H](c2ccc(C(F)(F)F)c3ncccc23)C1 [Compound 153, (1S,3S,5R)—N-(2-methoxyethyl)-3-methyl-5-(8-(trifluoromethyl)quinolin-5-yl)cyclohexanamine] | 1 to 20
C[C@H]1C[C@@H](NC(=O)[C@@H](O)C(C)(C)C)C[C@@H](c2ccc(C(F)(F)F)c3nccnc23)C1 [Compound 154, (S)-2-hydroxy-3,3-dimethyl-N-((1R,3R,5S)-3-methyl-5-(8-(trifluoromethyl)quinoxalin-5-yl)cyclohexyl)butanamide] | < 1
C[C@@H]1C[C@H](NC(=O)[C@@H](O)C(C)(C)C)C[C@H](c2ccc(C(F)(F)F)c3nccnc23)C1 [Compound 155, (S)-2-hydroxy-3,3-dimethyl-N-((1S,3S,5R)-3-methyl-5-(8-(trifluoromethyl)quinoxalin-5-yl)cyclohexyl)butanamide] | 1 to 20
COCCN[C@@H]1C[C@H](C)C[C@H](c2ccc(F)c3ncccc23)C1 [Compound 160, (cis-1,3,5)-3-(8-fluoroquinolin-5-yl)-N-(2-methoxyethyl)-5-methylcyclohexan-1-amine] | > 20
